The values that follow come from US20220306617A1, “SUBSTITUTED 1,3-PHENYL HETEROARYL DERIVATIVES AND THEIR USE IN THE TREATMENT OF DISEASE” (NOVARTIS AG, priority 2019, published 2022).

As usually defined, the EC50 is the concentration that produces a half-maximal response.

For the experiment, the target named is T1, abc isoform of human TMEM16A channel expressed in CHO cells (Homo sapiens, UniProt Q5XXA6, DEL476-501).
T1 construct: expressed in transfected cells; host or cells: CHO cells, doxycycline-inducible expression under Blasticidin/Zeocin selection
T1 sequence (Q5XXA6 with tags, fused parts or gaps isoform Q5XXA6-5 DEL539-564): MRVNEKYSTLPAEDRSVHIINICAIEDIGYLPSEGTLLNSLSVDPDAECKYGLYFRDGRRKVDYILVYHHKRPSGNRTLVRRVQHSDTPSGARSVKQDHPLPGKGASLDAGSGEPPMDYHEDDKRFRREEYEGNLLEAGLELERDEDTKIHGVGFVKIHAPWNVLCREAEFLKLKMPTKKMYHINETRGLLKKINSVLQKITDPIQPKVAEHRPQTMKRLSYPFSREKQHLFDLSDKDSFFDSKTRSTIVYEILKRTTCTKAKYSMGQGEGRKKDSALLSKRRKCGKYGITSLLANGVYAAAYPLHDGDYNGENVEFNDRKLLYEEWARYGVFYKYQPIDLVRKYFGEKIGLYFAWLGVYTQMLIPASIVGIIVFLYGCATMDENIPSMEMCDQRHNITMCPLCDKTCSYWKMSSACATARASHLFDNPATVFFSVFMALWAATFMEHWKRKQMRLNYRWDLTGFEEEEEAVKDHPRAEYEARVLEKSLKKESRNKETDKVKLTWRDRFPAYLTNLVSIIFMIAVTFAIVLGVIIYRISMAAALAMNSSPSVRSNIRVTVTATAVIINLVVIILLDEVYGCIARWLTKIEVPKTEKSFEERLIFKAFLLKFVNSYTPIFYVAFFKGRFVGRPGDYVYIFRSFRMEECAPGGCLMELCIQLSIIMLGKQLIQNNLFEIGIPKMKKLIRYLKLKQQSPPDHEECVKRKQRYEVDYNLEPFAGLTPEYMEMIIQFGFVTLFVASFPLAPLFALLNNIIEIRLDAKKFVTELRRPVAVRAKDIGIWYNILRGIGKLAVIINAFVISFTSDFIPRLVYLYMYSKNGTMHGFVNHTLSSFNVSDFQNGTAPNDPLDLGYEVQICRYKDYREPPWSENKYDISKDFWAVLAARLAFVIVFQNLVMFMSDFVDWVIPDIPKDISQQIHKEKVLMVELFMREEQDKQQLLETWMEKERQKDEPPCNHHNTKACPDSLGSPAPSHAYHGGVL
The experiment can be described thus: Automated patch clamping (QPatch) assay to measure TMEM16A activity in whole-cell. Format: cell-based. The following applies: for EC50: CHO cells expressing human TMEM16A (abc), whole-cell automated patch clamp, Hill fit, read-out: TMEM16A QPATCH assay EC50 V3 EC50; for Emax: CHO, maximum current at highest dose relative to reference potentiator at maximal concentration (upper limit) and vehicle (lower limit), read-out: TMEM16A QPATCH assay EC50 V3 Assay Window (% TMEM16A max activation). In a few lines:
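CHO cells with doxycycline-induced (1 μg/mL, 18-24 h) human TMEM16A abc isoform; QPatch whole-cell recording, hold −70 mV, step +70 mV 1500 ms, then −90 to +70 mV ramp. Compounds in 0.3% DMSO; EC50 by Hill fit; % max activation relative to vehicle baseline and reference potentiator maximum.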
(Patch clamp records ionic current or voltage across a cell membrane.)

For `C[C@H](NC(=O)c1cc(-c2cccc(-c3ncc(C(=O)N[C@@H](C)C4CC4)o3)c2)[nH]n1)C1CC1` [Example 2.5, N-((S)-1-Cyclopropylethyl)-2-(3-(3-(((S)-1-Cyclopropylethyl)Carbamoyl)-1H-Pyrazol-5-Yl)Phenyl)Oxazole-5-Carboxamide], the EC50 turned out to be 10 nM and the Emax amounted to 32%.
For `CCC(CC)NC(=O)c1cnc(-c2cccc(-c3cc(C(=O)NC(COC)C4CC4)n[nH]3)c2)o1` (stereo not shown) [Example 3.1, 2-(3-(3-((1-Cyclopropyl-2-Methoxyethyl)Carbamoyl)-1H-Pyrazol-5-Yl)Phenyl)-N-(Pentan-3-Yl)Oxazole-5-Carboxamide] the same measures were 300 nM and 140%.
For `CCCC(CCC)NC(=O)c1cc(-c2cccc(-c3ncc(C(=O)NC(CC)CC)o3)c2)[nH]n1` [Example 3.2, 2-(3-(3-(Heptan-4-Ylcarbamoyl)-1 H-Pyrazol-5-Yl)Phenyl)-N-(Pentan-3-yl)Oxazole-5-Carboxamide] the same measures were 30 nM and 90%.
As for `CCC(CC)NC(=O)c1cnc(-c2cccc(-c3cc(C(=O)N[C@H](C(=O)OCc4ccccc4)C(C)C)n[nH]3)c2)o1` [Example 3.3, (S)-Benzyl 3-Methyl-2-(5-(3-(5-(Pentan-3-Ylcarbamoyl)Oxazol-2-Yl)Phenyl)-1 H-Pyrazole-3-Carboxamido)Butanoate], the EC50 turned out to be 180 nM and the Emax worked out at 133%.
The corresponding values for `CCC(CC)NC(=O)c1cnc(-c2cccc(-c3cc(C(=O)NCC4CCC4)n[nH]3)c2)o1` [Example 3.5, 2-(3-(3-((Cyclobutylmethyl)Carbamoyl)-1H-Pyrazol-5-Yl)Phenyl)-N-(Pentan-3-Yl)Oxazole-5-Carboxamide] are 40 nM and 124%.
For `CCC(CC)NC(=O)c1cnc(-c2cccc(-c3cc(C(=O)NC4(C5CC5)CC4)n[nH]3)c2)o1` [Example 3.6, 2-(3-(3-([1,1′-Bi(Cyclopropan)]-1-Ylcarbamoyl)-1H-Pyrazol-5-Yl)Phenyl)-N-(Pentan-3-Yl)Oxazole-5-Carboxamide] the same measures were 170 nM and 122%.
In the case of `CCC(CC)NC(=O)c1cnc(-c2cccc(-c3cc(C(=O)NC(C)(C)C4CC4)n[nH]3)c2)o1` [Example 3.7, 2-(3-(3-((2-Cyclopropylpropan-2-Yl)Carbamoyl)-1H-Pyrazol-5-Yl)Phenyl)-N-(Pentan-3-Yl)Oxazole-5-Carboxamide], the EC50 came to 20 nM and the Emax was 118%.
For `CCC(CC)NC(=O)c1cnc(-c2cccc(-c3cc(C(=O)NC(C)(C4CC4)C(F)(F)F)n[nH]3)c2)o1` (stereo not shown) [Example 3.8, 2-(3-(3-((2-Cyclopropyl-1,1,1-Trifluoropropan-2-Yl)Carbamoyl)-1H-Pyrazol-5-Yl)Phenyl)-N-(Pentan-3-Yl)Oxazole-5-Carboxamide] the same measures were 50 nM and 99%.
For `CCC(CC)NC(=O)c1cnc(-c2cccc(-c3cc(C(=O)NCCOC(C)C)n[nH]3)c2)o1` [Example 3.9, 2-(3-(3-((2-Isopropoxyethyl)Carbamoyl)-1H-Pyrazol-5-Yl)Phenyl)-N-(Pentan-3-Yl)Oxazole-5-Carboxamide] the same measures were 500 nM and 96%.
For `CCC(CC)NC(=O)c1cnc(-c2cccc(-c3cc(C(=O)NC(C)C4CCC4)n[nH]3)c2)o1` (stereo not shown) [Example 3.10, 2-(3-(3-((1-Cyclobutylethyl)Carbamoyl)-1H-Pyrazol-5-Yl)Phenyl)-N-(Pentan-3-Yl)Oxazole-5-Carboxamide] the same measures were 90 nM and 95%.
`CCC(CC)NC(=O)c1cnc(-c2cccc(-c3cc(C(=O)N[C@@H](C)COC)n[nH]3)c2)o1` [Example 3.11, (S)-2-(3-(3-((1-Methoxypropan-2-Yl)Carbamoyl)-1H-Pyrazol-5-Yl)Phenyl)-N-(Pentan-3-Yl)Oxazole-5-Carboxamide]: the EC50 is 590 nM and the Emax turned out to be 91%.
For `CCC(CC)NC(=O)c1cnc(-c2cccc(-c3cc(C(=O)NCC(C)(C)OC)n[nH]3)c2)o1` [Example 3.12, 2-(3-(3-((2-Methoxy-2-Methylpropyl)Carbamoyl)-1H-Pyrazol-5-Yl)Phenyl)-N-(Pentan-3-Yl)Oxazole-5-Carboxamide] the same measures were 270 nM and 76%.
For `CCC(CC)NC(=O)c1cnc(-c2cccc(-c3cc(C(=O)NCC4(C)CC4)n[nH]3)c2)o1` [Example 3.13, 2-(3-(3-(((1-Methylcyclopropyl)Methyl)Carbamoyl)-1H-Pyrazol-5-Yl)Phenyl)-N-(Pentan-3-Yl)Oxazole-5-Carboxamide] the same measures were 70 nM and 70%.
Take `CCC(CC)NC(=O)c1cnc(-c2cccc(-c3cc(C(=O)Nc4cccc(OC(F)(F)F)c4)n[nH]3)c2)o1` [Example 3.14, N-(Pentan-3-Yl)-2-(3-(3-((3-(Trifluoromethoxy)Phenyl)Carbamoyl)-1 H-Pyrazol-5-Yl)Phenyl)Oxazole-5-Carboxamide]: the EC50 is 490 nM and the Emax was 43%.
The corresponding values for `CCC(CC)NC(=O)c1cnc(-c2cccc(-c3cc(C(=O)N4CCCC(C)(C)C4)n[nH]3)c2)o1` [Example 3.15, 2-(3-(3-(3,3-Dimethylpiperidine-1-Carbonyl)-1H-Pyrazol-5-Yl)Phenyl)-N-(Pentan-3-Yl)Oxazole-5-Carboxamide] are 200 nM and 72%.
For `CCC(CC)NC(=O)c1cnc(-c2cccc(-c3cc(C(=O)NCc4ccccc4)n[nH]3)c2)o1` [Example 3.16, 2-(3-(3-(Benzylcarbamoyl)-1H-Pyrazol-5-Yl)Phenyl)-N-(Pentan-3-Yl)Oxazole-5-Carboxamide] the same measures were 140 nM and 67%.
For `CCOC(=O)[C@H](CC1CCCCC1)NC(=O)c1cc(-c2cccc(-c3ncc(C(=O)NC(CC)CC)o3)c2)[nH]n1` [Example 3.17, (S)-Ethyl 3-Cyclohexyl-2-(5-(3-(5-(Pentan-3-Ylcarbamoyl)Oxazol-2-Yl)Phenyl)-1 H-Pyrazole-3-Carboxamido)Propanoate] the same measures were 170 nM and 66%.
Take `CCC(CC)NC(=O)c1cnc(-c2cccc(-c3cc(C(=O)NCC4CCCCC4)n[nH]3)c2)o1` [Example 3.18, 2-(3-(3-((Cyclohexylmethyl)Carbamoyl)-1H-Pyrazol-5-Yl)Phenyl)-N-(Pentan-3-Yl)Oxazole-5-Carboxamide]: the half-maximal effective concentration (EC50) was found to be 30 nM and the Emax stood at 66%.
For `CCC(CC)NC(=O)c1cnc(-c2cccc(-c3cc(C(=O)NCc4ccc(C5(C(F)(F)F)N=N5)cc4)n[nH]3)c2)o1` [Example 3.19, N-(Pentan-3-Yl)-2-(3-(3-((4-(3-(Trifluoromethyl)-3H-Diazirin-3-Yl)Benzyl)Carbamoyl)-1 H-Pyrazol-5-Yl)Phenyl)Oxazole-5-Carboxamide] the same measures were 270 nM and 69%.
The corresponding values for `CCOC(=O)C1(C)CCN(C(=O)c2cc(-c3cccc(-c4ncc(C(=O)NC(CC)CC)o4)c3)[nH]n2)C1` (stereo not shown) [Example 3.20, Ethyl 3-Methyl-1-(5-(3-(5-(Pentan-3-Ylcarbamoyl)Oxazol-2-Yl)Phenyl)-1H-Pyrazole-3-Carbonyl)Pyrrolidine-3-Carboxylate] are 450 nM and 82%.
